Measured values from patent US11292807B2 (OCEANS LTD., priority 2015, dated 2022).
Like-named read-outs stand apart in the source and are kept apart here.

Legend:
[1] = tested on: MDA-MB; settings: MDA-MB
[2] = tested on: MDA-MB; test: cells; settings: Homo sapiens, read-out: Average cell viability, MDA-MB; for viability at 100 µg/mL: 100 ug/mL; for viability at 50 µg/mL: 50 ug/mL
[3] = tested on: PC3; test: CIMA assay, cell viability, PC3; settings: for Fold change in viability AVG / In vitro activity against cancer cell lines, PC3 AVG: PC3
[4] = tested on: U373 (glioblastoma-astrocytoma); test: CIMA assay, cell viability, U373; settings: for Fold change in viability AVG / In vitro activity against cancer cell lines, U373 AVG: U373
Method: Stock solutions of the extracts were prepared in dimethylsulfoxide (DMSO) at 10 mg/mL and stored in 200 μl aliquots at −20° C. until analysis. This preparation ensured that the DMSO delivered to cells in culture never exceeded 1%.
Prepared extracts were assessed following chronic exposure conditions in which cells were seeded at 2×10^3 cells/well (96 well-plate) and incubated with test compounds for 72 h. Each compound was evaluated over a range of concentrations (0, 10, 25, 50 or 100 μg/ml). Cell proliferation was initially assessed using a standard colorimetric indicator of metabolic activity (CIMA) assay. In this assay, tetrazole reduction was evaluated as a measure of metabolic function that evaluates mitochondrial activity to determine the extent of cell proliferation within a culture. This assay is based on the reduction of yellow tetrazolium salt to purple formazan by mitochondrial reductases enzyme in viable cells, resulting in a color changed that confers a change in absorbance.

[5] = tested on: SKOV3 (ovarian adenocarcinoma); test: CIMA assay, cell viability, SKOV3; settings: for Fold change in viability AVG / In vitro activity against cancer cell lines, SKOV AVG: SKOV
[6] = tested on: THP-1 (acute monocytic leukemia); test: CIMA assay, cell viability, THP-1; settings: for Fold change in viability AVG / In vitro activity against cancer cell lines, THP-1 AVG: THP-1
[7] = CIMA assay, cell viability, CCD1079SK; settings: human, Average cell viability, CCD
[8] = tested on: CCD1079SK (fibroblast, noncancerous but proliferating); test: CIMA assay, cell viability, CCD1079SK; settings: CCD
[9] = tested on: A549 (lung carcinoma); test: CIMA assay (colorimetric indicator of metabolic activity), cell viability, A549; settings: for Fold change in viability AVG / In vitro activity against cancer cell lines, A549 AVG: A549
[10] = Homo sapiens, PC-3, read-out: Average cell viability, PC3, 100 ug/mL
[11] = Homo sapiens, U373 MG, read-out: Average cell viability, U373, 100 ug/mL
[12] = Homo sapiens, SK-OV-3, read-out: Average cell viability, SKOV, 100 ug/mL
[13] = Homo sapiens, THP-1, read-out: Average cell viability, THP-1, 100 ug/mL
[14] = CCD1079SK fibroblasts (noncancerous, proliferating)
[15] = Homo sapiens, A549, read-out: Average cell viability, A549, 100 ug/mL
[16] = Homo sapiens, PC-3, read-out: Average cell viability, PC3, 50 ug/mL
[17] = Homo sapiens, U373 MG, read-out: Average cell viability, U373, 50 ug/mL
[18] = Homo sapiens, SK-OV-3, read-out: Average cell viability, SKOV, 50 ug/mL
[19] = Homo sapiens, THP-1, read-out: Average cell viability, THP-1, 50 ug/mL
[20] = Homo sapiens, A549, read-out: Average cell viability, A549, 50 ug/mL

## CCCCCC(O)/C=C/C=C/CCCCCCCC(=O)O (stereo not shown) [77-31-34-6 A, 13-hydroxyoctadeca-9E,11E-dienoic acid]
[1]; 1.00 ug/mL (so in the source)
  Fold change in viability AVG: 0.13
[1]; 100 ug/mL
  In vitro activity against cancer cell lines, MDA-MB AVG: 0.13
[2]
  viability at 100 µg/mL: 12%
[3]; [10]
  viability at 100 µg/mL: 5%
[3]; 1.00 ug/mL (so in the source)
  Fold change in viability AVG: 0.05
[3]; 100 ug/mL
  In vitro activity against cancer cell lines, PC3 AVG: 0.05
[4]; [11]
  viability at 100 µg/mL: 4%
[4]; 1.00 ug/mL (so in the source)
  Fold change in viability AVG: 0.04
[4]; 100 ug/mL
  In vitro activity against cancer cell lines, U373 AVG: 0.04
[5]; [12]
  viability at 100 µg/mL: 53%
[5]; 1.00 ug/mL (so in the source)
  Fold change in viability AVG: 0.57
[5]; 100 ug/mL
  In vitro activity against cancer cell lines, SKOV AVG: 0.57
[6]; [13]
  viability at 100 µg/mL: 6%
[6]; 1.00 ug/mL (so in the source)
  Fold change in viability AVG: 0.07
[6]; 100 ug/mL
  In vitro activity against cancer cell lines, THP-1 AVG: 0.07
[7]; [14]
  viability at 72 h, 100 ug/mL: 13%
[8]; 1.00 ug/mL (so in the source)
  Fold change in viability AVG: 0.14
[9]; 1.00 ug/mL (so in the source)
  Fold change in viability AVG: 0.08
[9]; 100 ug/mL
  In vitro activity against cancer cell lines, A549 AVG: 0.08
[9]; [15]
  viability at 100 µg/mL: 7%

## CCCCCCCCCCCCCCCC(=O)OCC(O)CO (stereo not shown) [77-38-41-1 B, MAG (C16:0)]
[1]; 50 ug/mL
  Fold change in viability AVG: 0.70
  In vitro activity against cancer cell lines, MDA-MB AVG: 0.70
[1]; 100 ug/mL
  Fold change in viability AVG: 0.30
  In vitro activity against cancer cell lines, MDA-MB AVG: 0.30
[2]
  viability at 50 µg/mL: 64%
  viability at 100 µg/mL: 28%
[3]; [16]
  viability at 50 µg/mL: 52%
[3]; [10]
  viability at 100 µg/mL: 15%
[3]; 50 ug/mL
  Fold change in viability AVG: 0.54
  In vitro activity against cancer cell lines, PC3 AVG: 0.54
[3]; 100 ug/mL
  Fold change in viability AVG: 0.16
  In vitro activity against cancer cell lines, PC3 AVG: 0.16
[4]; [17]
  viability at 50 µg/mL: 13%
[4]; [11]
  viability at 100 µg/mL: 7%
[4]; 50 ug/mL
  Fold change in viability AVG: 0.13
  In vitro activity against cancer cell lines, U373 AVG: 0.13
[4]; 100 ug/mL
  Fold change in viability AVG: 0.07
  In vitro activity against cancer cell lines, U373 AVG: 0.07
[5]; [18]
  viability at 50 µg/mL: 52%
[5]; [12]
  viability at 100 µg/mL: 22%
[5]; 50 ug/mL
  Fold change in viability AVG: 0.56
  In vitro activity against cancer cell lines, SKOV AVG: 0.56
[5]; 100 ug/mL
  Fold change in viability AVG: 0.24
  In vitro activity against cancer cell lines, SKOV AVG: 0.24
[6]; [19]
  viability at 50 µg/mL: 96%
[6]; [13]
  viability at 100 µg/mL: 105%
[6]; 50 ug/mL
  Fold change in viability AVG: 1.10
  In vitro activity against cancer cell lines, THP-1 AVG: 1.10
[6]; 100 ug/mL
  Fold change in viability AVG: 1.19
  In vitro activity against cancer cell lines, THP-1 AVG: 1.19
[7]; [14]
  viability at 72 h, 50 ug/mL: 78%
  viability at 72 h, 100 ug/mL: 72%
[8]; 50 ug/mL
  Fold change in viability AVG: 0.85
[8]; 100 ug/mL
  Fold change in viability AVG: 0.79
[9]; 50 ug/mL
  Fold change in viability AVG: 0.81
  In vitro activity against cancer cell lines, A549 AVG: 0.81
[9]; 100 ug/mL
  Fold change in viability AVG: 0.30
  In vitro activity against cancer cell lines, A549 AVG: 0.30
[9]; [20]
  viability at 50 µg/mL: 69%
[9]; [15]
  viability at 100 µg/mL: 26%

## CC/C=C\C/C=C\C/C=C\C/C=C\C/C=C\CCCC(=O)OCC(COC1OC(CO)C(O)C(O)C1O)OC(=O)CCC/C=C\C/C=C\C/C=C\C/C=C\C/C=C\CC (stereo not shown) [Compound 7, MGDG C20:5/C20:5]
[1]; sample at 1 ug/mL
  MDA-MB AVG: 1.16
[1]; sample at 10 ug/mL
  MDA-MB AVG: 1.13
[1]; sample at 50 ug/mL
  MDA-MB AVG: 0.30
[1]; sample at 100 ug/mL
  MDA-MB AVG: 0.27
[1]; 1 ug/mL
  Fold change in viability AVG: 1.16
[1]; 10 ug/mL
  Fold change in viability AVG: 1.13
[1]; 50 ug/mL
  Fold change in viability AVG: 0.30
[1]; 100 ug/mL
  Fold change in viability AVG: 0.27
[2]; 1 ug/mL
  viability at 1 µg/mL: 106%
[2]; 10 ug/mL
  viability at 10 µg/mL: 104%
[2]
  viability at 50 µg/mL: 27%
  viability at 100 µg/mL: 24%
[3]; Homo sapiens, PC-3, read-out: Average cell viability, PC3, 1 ug/mL
  viability at 1 µg/mL: 107%
[3]; Homo sapiens, PC-3, read-out: Average cell viability, PC3, 10 ug/mL
  viability at 10 µg/mL: 103%
[3]; [16]
  viability at 50 µg/mL: 14%
[3]; [10]
  viability at 100 µg/mL: 12%
[3]; PC3, sample at 1 ug/mL
  PC3 AVG: 1.11
[3]; PC3, sample at 10 ug/mL
  PC3 AVG: 1.07
[3]; PC3, sample at 50 ug/mL
  PC3 AVG: 0.14
[3]; PC3, sample at 100 ug/mL
  PC3 AVG: 0.13
[3]; 1 ug/mL
  Fold change in viability AVG: 1.11
[3]; 10 ug/mL
  Fold change in viability AVG: 1.07
[3]; 50 ug/mL
  Fold change in viability AVG: 0.14
[3]; 100 ug/mL
  Fold change in viability AVG: 0.13
[4]; Homo sapiens, U373 MG, read-out: Average cell viability, U373, 1 ug/mL
  viability at 1 µg/mL: 120%
[4]; Homo sapiens, U373 MG, read-out: Average cell viability, U373, 10 ug/mL
  viability at 10 µg/mL: 108%
[4]; [17]
  viability at 50 µg/mL: 6%
[4]; [11]
  viability at 100 µg/mL: 5%
[4]; U373, sample at 1 ug/mL
  U373 AVG: 1.22
[4]; U373, sample at 10 ug/mL
  U373 AVG: 1.10
[4]; U373, sample at 50 ug/mL
  U373 AVG: 0.06
[4]; U373, sample at 100 ug/mL
  U373 AVG: 0.05
[4]; 1 ug/mL
  Fold change in viability AVG: 1.22
[4]; 10 ug/mL
  Fold change in viability AVG: 1.10
[4]; 50 ug/mL
  Fold change in viability AVG: 0.06
[4]; 100 ug/mL
  Fold change in viability AVG: 0.05
[5]; Homo sapiens, SK-OV-3, read-out: Average cell viability, SKOV, 1 ug/mL
  viability at 1 µg/mL: 126%
[5]; Homo sapiens, SK-OV-3, read-out: Average cell viability, SKOV, 10 ug/mL
  viability at 10 µg/mL: 113%
[5]; [18]
  viability at 50 µg/mL: 95%
[5]; [12]
  viability at 100 µg/mL: 46%
[5]; 1 ug/mL
  Fold change in viability AVG: 1.36
[5]; 10 ug/mL
  Fold change in viability AVG: 1.21
[5]; 50 ug/mL
  Fold change in viability AVG: 1.02
[5]; 100 ug/mL
  Fold change in viability AVG: 0.49
[6]; Homo sapiens, THP-1, read-out: Average cell viability, THP-1, 1 ug/mL
  viability at 1 µg/mL: 108%
[6]; Homo sapiens, THP-1, read-out: Average cell viability, THP-1, 10 ug/mL
  viability at 10 µg/mL: 102%
[6]; [19]
  viability at 50 µg/mL: 52%
[6]; [13]
  viability at 100 µg/mL: 50%
[6]; THP-1, sample at 1 ug/mL
  THP-1 AVG: 1.17
[6]; THP-1, sample at 10 ug/mL
  THP-1 AVG: 1.16
[6]; THP-1, sample at 50 ug/mL
  THP-1 AVG: 0.59
[6]; THP-1, sample at 100 ug/mL
  THP-1 AVG: 0.57
[6]; 1 ug/mL
  Fold change in viability AVG: 1.17
[6]; 10 ug/mL
  Fold change in viability AVG: 1.16
[6]; 50 ug/mL
  Fold change in viability AVG: 0.59
[6]; 100 ug/mL
  Fold change in viability AVG: 0.57
[7]; CCD1079SK fibroblast cells (noncancerous, proliferating), 1 ug/mL
  viability at 72 h, 1 ug/mL: 103%
[7]; CCD1079SK fibroblasts (noncancerous, proliferating), 10 ug/mL
  viability at 72 h, 10 ug/mL: 97%
[7]; [14]
  viability at 72 h, 50 ug/mL: 23%
  viability at 72 h, 100 ug/mL: 17%
[8]; 1 ug/mL
  Fold change in viability AVG: 1.13
[8]; 10 ug/mL
  Fold change in viability AVG: 1.06
[8]; 50 ug/mL
  Fold change in viability AVG: 0.25
[8]; 100 ug/mL
  Fold change in viability AVG: 0.19
[9]; A549, sample at 1 ug/mL
  A549 AVG: 0.72
[9]; A549, sample at 10 ug/mL
  A549 AVG: 0.65
[9]; A549, sample at 50 ug/mL
  A549 AVG: 0.64
[9]; A549, sample at 100 ug/mL
  A549 AVG: 0.40
[9]; 1 ug/mL
  Fold change in viability AVG: 0.72
[9]; 10 ug/mL
  Fold change in viability AVG: 0.65
[9]; 50 ug/mL
  Fold change in viability AVG: 0.64
[9]; 100 ug/mL
  Fold change in viability AVG: 0.40
[9]; Homo sapiens, A549, read-out: Average cell viability, A549, 1 ug/mL
  viability at 1 µg/mL: 61%
[9]; Homo sapiens, A549, read-out: Average cell viability, A549, 10 ug/mL
  viability at 10 µg/mL: 56%
[9]; [20]
  viability at 50 µg/mL: 55%
[9]; [15]
  viability at 100 µg/mL: 34%

## CCCCCCCCCCCCOS(=O)(=O)[O-].[Na+] [cont-SDS]
[1]; 250 ug/ml
  In vitro activity against cancer cell lines, MDA-MB AVG: 0.16
[3]; 250 ug/ml
  In vitro activity against cancer cell lines, PC3 AVG: 0.08
[4]; 250 ug/ml
  In vitro activity against cancer cell lines, U373 AVG: 0.05
[5]; 250 ug/ml
  In vitro activity against cancer cell lines, SKOV AVG: 0.10
[6]; 250 ug/ml
  In vitro activity against cancer cell lines, THP-1 AVG: 0.18
[9]; 250 ug/ml
  In vitro activity against cancer cell lines, A549 AVG: 0.13
